Measured values from a melting point compilation (Tetko et al.; mined from patent text by program, amines drawn as free bases though some values may be those of a salt).

First: CCOc1cc(Cn2cc(CCC(=O)O)c(-c3ccccc3)c2)cc(OCc2csc(-c3cnccn3)n2)c1
Second: Cc1nc(-n2ccc(OCc3ccccc3)cc2=O)[nH]c1C(=O)NCc1cccnc1
The melting point of the first is lower: 97 to 98 °C for the first, 203 to 204 °C for the second.

First: NC(=O)c1cn(CCOC(=O)Oc2ccccc2)nc1[N+](=O)[O-]
Second: O=[N+]([O-])c1cc(OCc2ccccc2)ccc1CCO
The melting point of the first is higher: 108 to 110 °C for the first, 48 to 52 °C for the second.

Compared with COC(=O)[C@H](Cc1cccc(Br)c1)NC(=O)OC(C)(C)C, CC(C)(C)OC(=O)[C@@H](N)Cc1cc(I)c(O)c(I)c1 is higher in melting point: 60 to 61 °C for the first, 165 to 168 °C for the second.

First: CC(C)(C)NC(=O)OC1CCN(c2cccc(C(F)(F)F)c2)C1=O (centres undefined)
Second: CCN1CCN(CC(=O)NC2(c3ccc(Cl)cc3)C(=O)Nc3cc(C#N)cc(C(F)(F)F)c32)CC1 (centres undefined)
The melting point of the first is lower: 115 to 117 °C for the first, 260 to 262 °C for the second.

First: Oc1ccc2c(c1)CC(n1cc[nH]c1=S)CC2 (centres undefined)
Second: CC(=O)Nc1c(C(=O)C2CCCCC2)[nH]c2cc(Cl)ccc12
The melting point of the first is higher: 248 to 250 °C for the first, 198 °C for the second.

First: CC(C)(C)C(=O)CC(=O)Nc1cc(OC(=O)c2cc(C(C)(C)C)c(O)c(C(C)(C)C)c2)ccc1Cl
Second: COc1ccc2c(c1)c(CC(=O)O)c(C)n2C(=O)c1c(Cl)cc(Cl)cc1Cl
The melting point of the first is lower: 145 to 147 °C for the first, 193 to 196 °C for the second.

First: O=C(Nc1cc(Cl)cc(Cl)c1)Nc1ccc(Cl)cc1-c1nnn[nH]1
Second: O=C(O)c1cc(-c2ccc(Cl)cc2)n(Cc2ccc(Cl)cc2Cl)n1
The melting point of the first is higher: 234 to 236 °C for the first, 185 °C for the second.

First: O=C(O)CCCc1c(Cl)cccc1-c1ccccc1
Second: O=C1OC(CCCO)C(c2ccccc2)=C1O (centres undefined)
The melting point of the first is lower: 74 to 76 °C for the first, 148 to 150 °C for the second.

First: O=C(O)COc1cccc2c1CCC(CNC(=O)OC(c1ccccc1)c1ccccc1)C2 (centres undefined)
Second: OC(c1cccc(Br)c1)C1c2ccccc2CCc2ccccc21 (centres undefined)
The melting point of the first is higher: 160 to 161 °C for the first, 93.9 °C for the second.

First: COC(=O)c1c(-c2ccc(F)cc2)c2c3ccccc3ccn2c1C(C)C
Second: Nc1nc2ccccc2c2c1ncn2CCCCNC(=O)Oc1cccc2ccccc12
The melting point of the first is higher: 170 to 173 °C for the first, 89 to 92 °C for the second.

First: CN1CCN(C2=NC(=O)C(=Cc3cccc(-c4cc(F)c(O)c(C56CC7CC(CC(C7)C5)C6)c4)c3)S2)CC1
Second: CN1CCN(CC2CCN(c3ncc4ncnc(Nc5ccc(F)c(Cl)c5)c4n3)CC2)CC1
The melting point of the first is higher: 226 to 228 °C for the first, 138 to 140 °C for the second.

Compared with COc1cc2c(=O)n(CCN(C)C)c3c(cnc4cccc([N+](=O)[O-])c43)c2cc1OC, COc1cc(OC)c(/C=C/S(=O)(=O)Cc2ccc(OC)c([N+](=O)[O-])c2)c(OC)c1 is lower in melting point: 194 to 195 °C for the first, 186 to 187 °C for the second.

First: CN(C)C/C=C/C(=O)N1CCOc2cc3ncc(C#N)c(Nc4ccc(F)c(Cl)c4)c3cc21
Second: CC1(C)CCC(=O)Nc2cc(Nc3ncc(Cl)c(Nc4ccc(N5CCOCC5)cc4OCCC#N)n3)ccc21
The melting point of the first is higher: 199 to 200 °C for the first, 150 to 156 °C for the second.

First: O=C(Nc1ncc(C(=O)NCCO)s1)c1cn(Cc2ccc(Cl)c(Cl)c2)nn1
Second: CCCNC(=O)Nc1c(C(=O)c2ccccc2)[nH]c2cc(Cl)ccc12
The melting point of the first is higher: 275 °C for the first, 234 to 236 °C for the second.

First: CN(C)CC(=O)Nc1ccccc1[N+](=O)[O-]
Second: N#Cc1ccccc1NC(=O)Nc1ccc(S(N)(=O)=O)cc1
The melting point of the first is lower: 44 to 47 °C for the first, 256 to 258 °C for the second.

Compared with Oc1c(CN2CCCC2)cc(Nc2ccc3ccccc3n2)cc1CN1CCCC1, CCN(CC)CCCn1ccc2cc(Nc3ncnc4cc(-c5ccccc5)sc34)ccc21 is higher in melting point: 64 to 66 °C for the first, 178 to 180 °C for the second.

First: Cc1cnc(N2N=C(c3ccc([N+](=O)[O-])cc3)c3cc4c(cc3CC2C)OCO4)s1 (centres undefined)
Second: Nc1ncc2c(n1)-c1ccc(Cl)cc1C(c1ccccc1F)=NC2
The melting point of the first is lower: 193 to 195 °C for the first, 245 to 248 °C for the second.

First: CCC(C#N)(C(N)=O)c1ccccc1 (centres undefined)
Second: CCOC(=O)c1ncc2ccccc2n1
The melting point of the first is higher: 116 to 117 °C for the first, 71 to 74 °C for the second.

CCn1cc(C(=O)O)c(=O)c2cc(F)c(N3CCC(NCC(C)=O)C3)nc21 (centres undefined) and Nc1cccnc1C1CCN(c2cc3c(cc2F)c(=O)c(C(=O)O)cn3C2CC2)C1 (centres undefined) cannot be ordered by melting point: 287 to 289 °C for the first, greater than 270 °C for the second.

First: COc1cc2cc(C(=O)N3CC(CCl)c4c3cc(N3C(=O)c5ccccc5C3=O)c3ncccc43)[nH]c2c(OC)c1OC (centres undefined)
Second: CCCCc1c(/C=C/C(=O)Oc2ccc([N+](=O)[O-])cc2)cc(OC)c2ccccc12
The melting point of the first is higher: 189 to 191 °C for the first, 122 °C for the second.

Compared with FC1CC(Nc2ncnc3[nH]ncc23)CCC1OCC(F)(F)c1ccccc1 (centres undefined), O[C@@H]1CN(CCNc2ncccn2)CC[C@H]1NCc1ccccc1 (relative stereo) is lower in melting point: 178 to 179 °C for the first, 127 °C for the second.

First: CCOc1ccc(S(=O)(=O)N2CCNCC2)cc1-c1nc2c(C)cccc2c(=O)[nH]1
Second: CCc1ccccc1S(=O)(=O)c1cc(N)c2ncccc2c1[N+](=O)[O-]
The melting point of the first is lower: 163 to 165 °C for the first, 213 to 216 °C for the second.

First: OC[C@H]1O[C@@H](n2cnc3c(NC4CCOC4)ncnc32)[C@@H](O)[C@H]1O (some centres undefined)
Second: O=S(=O)(c1ccc(C(CC2CCOCC2)c2ccc(-c3ccc(Cn4cncn4)cn3)[nH]2)cc1)C1CC1 (centres undefined)
The melting point of the first is lower: 128 to 130 °C for the first, 152 to 153 °C for the second.

First: Cc1ccc([N+](=O)[O-])c(Cl)c1C#N
Second: N#Cc1cnc2cnc(F)cc2c1Cl
The melting point of the first is lower: 106 to 107 °C for the first, 150 to 155 °C for the second.

First: Cc1noc(NS(=O)(=O)c2ccccc2-c2ccc(-c3ncco3)cc2CNC=O)c1C
Second: CC(C)N(O)C(=O)Cc1ccc2c(c1)C(=O)c1ccccc1CO2
The melting point of the first is lower: 105 to 109 °C for the first, 144 to 145 °C for the second.

First: CCOC(=O)CC(=O)c1cc(F)c(OP(=O)(Oc2ccccc2)Oc2ccccc2)nc1Nc1ccc(F)cc1F
Second: Cc1ccc2oc(=O)c(NC(=O)Nc3ccc(F)cc3F)c(-c3ccccc3Cl)c2c1
The melting point of the first is lower: 85 to 86 °C for the first, 214 to 215 °C for the second.

First: CCC1(O)C(C)=CC(=O)N1c1ccccc1 (centres undefined)
Second: CC(C)COC1C=CC(=O)N1S(=O)(=O)c1ccccc1 (centres undefined)
The melting point of the first is higher: 97 to 100 °C for the first, 82 to 83 °C for the second.

Compared with COC(=O)c1sc2cncc(Oc3ccc(Cl)cc3)c2c1C, CNc1cc(-c2ccc(Cl)cc2)nc(C(=O)OC)c1N is higher in melting point: 140 to 141 °C for the first, 178 to 200 °C for the second.

First: Cn1ncc(C(=O)N2CCOCC2)c1C(=O)Nc1ccn2nc(-c3cccnc3)nc2c1
Second: COc1ccc(NC(=O)c2ccccc2NC(=O)c2ccc(C(C)(C)C)cc2)cc1
The melting point of the first is higher: 218 to 220 °C for the first, 208 to 210 °C for the second.

Compared with CCCn1c(=O)c2[nH]c(C)nc2n(CCC)c1=O, COc1ccc(Cn2c(=O)c3cc(Cl)ccc3n(CCCCBr)c2=O)cc1 is lower in melting point: 202 to 203 °C for the first, 146 to 147 °C for the second.

First: CCCN(CCC)C1Cc2cccc(C(N)=O)c2NC1=O (centres undefined)
Second: CCOC(=O)C1=C(N)NC(C)=CC1c1ccccc1C (centres undefined)
The melting point of the first is higher: 214 to 217 °C for the first, 159 °C for the second.

Compared with N[C@@H](Cc1ccccc1)[C@@H](O)C[C@H](Cc1ccccc1)NC(=O)OCc1cncs1, O=C(OCc1ccccc1)c1ccc(OCc2cccc(COc3ccc(C(=O)OCc4ccccc4)cc3)c2)cc1 is higher in melting point: 61 to 63 °C for the first, 92.5 to 93.8 °C for the second.

Compared with CC(C)(C)N(Cc1ccccc1)CC(O)COc1cccc2c1CNC(=O)N2 (centres undefined), CCOc1cccc(CNCCc2ccccc2)c1O is lower in melting point: 215 to 217 °C for the first, 88 to 90 °C for the second.

First: Cc1ccccc1-c1nc(=S)n(Cc2ccccc2)[nH]1
Second: O=C(O)c1ccccc1SCc1nccc2ccccc12
The melting point of the first is lower: 150 to 153 °C for the first, 170 to 172 °C for the second.

First: CCNc1nc(NCc2ccco2)nc(Nc2ccc3nc(C)sc3c2)n1
Second: CCc1ccc(C=C2CCCN(c3nc(C)c(C(=O)NCc4ccccc4)s3)C2=O)s1
The melting point of the first is lower: 97 to 99 °C for the first, 171 to 172 °C for the second.

First: CC(=O)N1CCOc2ccc(C3=NNC(=O)CC3)cc21
Second: Cn1nc(-c2ccc(S(C)(=O)=O)cc2Cl)c2c1CCCC2=O
The melting point of the first is lower: 156 to 158 °C for the first, 208 °C for the second.

First: NC(=O)C1(N)CCCCC1
Second: CC1=C(/C=C/C(=O)N2CCN(C(N)=O)CC2)C(C)(C)CCC1
The melting point of the first is lower: 99 to 102 °C for the first, 144 °C for the second.

First: CCOC(=O)C(=NOC)c1noc(N)n1
Second: CCOC(=O)c1c(S(N)(=O)=O)c2ccccc2n1CC
The melting point of the first is lower: 143 to 146 °C for the first, 148 to 149 °C for the second.

First: CN(C)c1cc(OC(F)(F)F)cc2sc(N)nc12
Second: CN(C)c1c(S(=O)(=O)C(F)(F)F)c(C#N)nn1-c1c(Cl)cc(C(F)(F)F)cc1Cl
The melting point of the first is higher: 184 °C for the first, 178 to 179 °C for the second.

First: COC(=O)c1ccc(CN(O)Cc2ccc(C(=O)OC)cc2)cc1
Second: O=C(O)CCc1ccc(SCCNS(=O)(=O)c2ccc(Cl)cc2)cc1
The melting point of the first is higher: 129 to 131 °C for the first, 117 to 119 °C for the second.

First: CCc1ccc2c(CC(=O)O)c(C(=O)c3cc(C)ccn3)[nH]c2c1
Second: CCOC(=O)c1c(C=O)c2ccc3oc4ccccc4c3c2n1C
The melting point of the first is higher: 204 to 207 °C for the first, 190 to 192 °C for the second.

Compared with COc1ccc(CC2COCc3nc4c(N)nc5ccccc5c4n32)cc1 (centres undefined), COc1ccc2sc(C(=O)O)c(Oc3ccccc3)c2c1 is higher in melting point: 115 to 130 °C for the first, 197 °C for the second.

Compared with Cn1c2ccc(F)cc2c(=O)n2nc(C#N)cc12, CCc1[nH]c(=O)[nH]c1C(=O)c1ccc(C#N)cc1 is lower in melting point: 331 to 340 °C for the first, 269 to 271 °C for the second.

First: Cc1nc(N)nc(N)c1C=CC(C)c1ccc(Cl)cc1 (centres undefined)
Second: Clc1ccc(-c2ncc3nc(Cl)cc(Cl)n23)cc1
The melting point of the first is lower: 158 to 165 °C for the first, 203 to 205 °C for the second.

Compared with COc1nc(NC(=O)NS(=O)(=O)c2ccccc2OC(F)F)nc(N(C)C)n1, CC(C)(C)n1cnc2c(O)nc3ccccc3c21 is higher in melting point: 171 to 172 °C for the first, greater than 300 °C for the second.

Compared with N#Cc1c(-c2sc(Cl)c(Cl)c2Cl)[nH]c(C(F)(F)F)c1Br, Cc1cc(Oc2c(F)cc(C(F)(F)F)cc2Cl)nn1C(=O)NCCBr is lower in melting point: 221 to 224 °C for the first, 85 to 86 °C for the second.

First: COC(=O)CCCNC(=O)C(CSC(C)=O)Cc1ccccc1 (centres undefined)
Second: CCN(CC)CCOc1ccc(NC(=O)C#Cc2ccc(-c3ccccc3)cc2)cc1Cl
The melting point of the first is lower: 81 to 82 °C for the first, 105 to 108 °C for the second.

First: O=CN=C1SCCN1Cc1ccc(Cl)nc1
Second: CC=CCn1c(CC)c(C)c2cnnc(OCc3ccc(F)cc3)c21
The melting point of the first is higher: 99 to 100 °C for the first, 74 to 76 °C for the second.

First: CCOC(=O)Cn1c2c(c3c(Cl)cc(Cl)cc31)CCN(C(=O)OC(C)(C)C)CC2
Second: CCOCc1nc2c(N)nc(C)c(C)c2n1CCCN
The melting point of the first is higher: 144 to 147 °C for the first, 127 °C for the second.

For CC(c1c[nH]cn1)c1cccc(C#N)c1O (centres undefined), the melting point was 172 °C.
